The results in this text go back to ChEMBL document CHEMBL1201862, “PubChem BioAssay data set” (2004).

Assay [1] addresses T1, Endoribonuclease toxin MazF (Escherichia coli K-12, UniProt P0AE70).
T1 sequence (P0AE70 whole entry): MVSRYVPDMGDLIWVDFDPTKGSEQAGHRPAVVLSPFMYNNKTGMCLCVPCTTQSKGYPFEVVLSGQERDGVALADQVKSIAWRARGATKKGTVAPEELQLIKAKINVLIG
In words: MazF toxin RNase activators, dose response, biochemical, fluorescence, single-stranded RNA substrate, uHTS hits (AID 588481). It counts as functional.

Assay [2] has as its target T1, Endoribonuclease toxin MazF. The experiment in a line: fluorescent RNA oligo signal without MazF, dose response, counter-screen for MazEF activator project, biochemical, fluorescence, single-stranded RNase substrate (AID 588502). It counts as functional.
Assay [3] is described as follows: inhibitors of intracellular T. cruzi replication, confirmation, NIH3T3 host cells, beta-gal luminescence (AID 2044).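 Also: intracellular parasites grown in NIH/3T3 mouse fibroblasts as host cells; luminescent beta-galactosidase reporter signal from transgenic T. cruzi replicating inside host cells; inhibitors lower the luminescence signal.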 It counts as functional, cell-based.
The nature of assay [4]: cytotoxicity toward NIH3T3 fibroblasts, dose response, counter-screen, cell-based, ATP luminescence, mouse fibroblasts (AID 2010).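 Also: cells exposed to compound for about 90 hours before reading.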 It is filed as functional.
Assay [5] has as its target Nuclear receptor subfamily 5 group A member 2 (Homo sapiens, UniProt O00482). It counts as functional, cell-based.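 Also: HEK293T cells transfected with LRH-1 and a StAR promoter luciferase reporter; potency for inhibitors that lower LRH-1 driven reporter light.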
The next assay has as its target Steroidogenic factor 1 (Homo sapiens, UniProt Q13285). In words: Counterscreen for inverse agonists of the liver receptor homolog-1 (LRH-1; NR5A2): Luminescence-based cell-based high throughput dose response assay to identify inverse agonists of the Steroidogenic Factor 1 Nuclear Receptor (SF1; NR5A1). It is filed as functional.
The nature of assay [6]: StAR promoter reporter inhibition counter-screen, dose response, counter-screen for LRH-1 inverse agonist project, cell-based, luminescence, luciferase reporter (AID 651969). It is filed as functional.
Assay [7] concerns Streptococcus sp. 'group A'. The experiment in a line: growth inhibition of control SK(-) GAS strain, dose response, counter-screen for streptokinase expression inhibitor project, luminescence, kanamycin, BacTiterGlo, confirmation (AID 1900). It is filed as functional, organism-based.
A further assay has as its target T2, Streptokinase A (Streptococcus pyogenes serotype M1, UniProt P10520).
T2 sequence (P10520 whole entry): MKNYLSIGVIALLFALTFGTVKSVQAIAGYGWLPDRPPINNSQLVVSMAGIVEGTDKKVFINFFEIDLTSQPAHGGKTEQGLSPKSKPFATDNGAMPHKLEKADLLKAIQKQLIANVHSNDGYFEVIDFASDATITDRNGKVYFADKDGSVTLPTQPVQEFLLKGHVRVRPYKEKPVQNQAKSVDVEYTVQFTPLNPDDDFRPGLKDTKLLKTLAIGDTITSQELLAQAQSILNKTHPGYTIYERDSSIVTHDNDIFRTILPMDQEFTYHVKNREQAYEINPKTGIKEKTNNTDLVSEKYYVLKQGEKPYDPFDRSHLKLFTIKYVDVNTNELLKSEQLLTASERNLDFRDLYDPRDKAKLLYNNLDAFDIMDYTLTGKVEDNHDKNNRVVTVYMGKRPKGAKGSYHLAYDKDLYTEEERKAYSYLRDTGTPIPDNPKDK
The experiment in a line: S. pyogenes streptokinase expression inhibitors, potency, dose response, plasminogen activation absorbance, OD405 (AID 1914).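 Also: secreted streptokinase activity via plasminogen activation per viability signal from cell pellet.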 It counts as functional, Streptococcus pyogenes M1 GAS.

A further assay has as its system Streptococcus. The experiment in a line: Group A Streptococcus viability loss, dose response, counter-screen for streptokinase expression inhibitor project, luminescence, BacTiterGlo (AID 1915).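 Also: potency for reduction of bacterial viability or growth.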 It is filed as functional, organism-based.
For assay [8], the system named is HEK293. In words: inhibitors of LMP1-driven NF-kB reporter, dose response, cell-based, HEK293, luciferase, cherry-pick (AID 588343). It counts as functional. The following applies: Homo sapiens.
The nature of assay [9]: HEp-2 cell cytotoxicity, dose response, cytotoxicity control for RSV inhibitor project, HTS (AID 2410). It counts as functional. The following applies: human respiratory syncytial virus.
The nature of assay [10]: inhibitors of firefly luciferase expression or activity, dose response, H4 neuroglioma cells, luminescence (AID 1990). It is filed as functional, cell-based.
Assay [11] is described as follows: Luminescence Cell-Based Dose Response HTS to Identify Inhibitors of 5'UTR Stem-Loop Driven Prion Protein mRNA Translation in H4 Neuroglioblastoma Cells. [Related pubchem assays: 1827 (Project Summary), 1813 (Primary HTS)]. It is filed as functional.
Assay [12] in a line: inhibitors of SNCA 5'UTR-driven reporter translation, confirmation, H4 neuroglioma cells, luminescence (AID 1988). It is filed as functional, cell-based.
Assay [13] is described as follows: A549 cell cytotoxicity, dose response, cytotoxicity control, plate reader, cherry-pick, antagonist series (AID 743412). It counts as functional, cell-based.
Assay [14] is described as follows: HepG2 cell cytotoxicity, dose response, cytotoxicity control, plate reader, cherry-pick, antagonist series (AID 743416). It counts as functional, cell-based.
Assay [15] is described as follows: LGR2 antagonists, dose response, cell-based, HEK293, CRE-luciferase reporter, cherry pick, set 2 (AID 743343).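 Also: transfected cells were stimulated with diluted bursicon conditioned medium after compound addition.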 It is filed as functional.
A short description of assay [16]: MC4R antagonists, dose response, counter-screen for LGR2 antagonist project, cell-based, plate reader, cherry pick (AID 743444).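 Also: transfected HEK 293 cells stimulated with alpha-MSH peptide; potency of inhibitors of the alpha-MSH evoked signal.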 It counts as functional.
In a further assay the target is Large T antigen (Simian virus 40, UniProt P03070). It is filed as functional, Betapolyomavirus macacae.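 Also: Confirmatory-stage PubChem screen for compounds that inhibit SV40 T antigen.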
Sequence of Large T antigen (P03070 whole entry): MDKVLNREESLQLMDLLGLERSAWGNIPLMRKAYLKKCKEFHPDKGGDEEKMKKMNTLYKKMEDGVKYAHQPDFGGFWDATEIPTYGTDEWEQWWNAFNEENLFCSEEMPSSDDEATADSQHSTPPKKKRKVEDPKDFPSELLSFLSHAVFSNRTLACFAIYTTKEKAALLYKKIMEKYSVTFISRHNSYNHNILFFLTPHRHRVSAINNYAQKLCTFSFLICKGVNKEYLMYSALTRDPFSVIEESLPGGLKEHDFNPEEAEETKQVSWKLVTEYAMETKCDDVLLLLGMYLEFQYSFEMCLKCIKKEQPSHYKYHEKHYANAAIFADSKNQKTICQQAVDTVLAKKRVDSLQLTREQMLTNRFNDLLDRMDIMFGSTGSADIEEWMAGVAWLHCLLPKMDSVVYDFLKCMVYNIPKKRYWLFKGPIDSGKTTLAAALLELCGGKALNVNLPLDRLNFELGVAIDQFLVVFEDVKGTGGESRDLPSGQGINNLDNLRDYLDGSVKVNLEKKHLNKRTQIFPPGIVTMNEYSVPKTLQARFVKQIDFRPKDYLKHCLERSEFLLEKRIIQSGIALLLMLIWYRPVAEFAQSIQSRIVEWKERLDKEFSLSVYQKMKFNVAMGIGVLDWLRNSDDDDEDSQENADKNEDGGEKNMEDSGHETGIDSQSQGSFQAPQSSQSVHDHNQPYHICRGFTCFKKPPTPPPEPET
In another assay the test system is Vero. The experiment in a line: Vero cell cytotoxicity, cytotoxicity control for flavivirus capping enzyme inhibitors (AID 588742). It is filed as functional. The following applies: Chlorocebus sabaeus.
Assay [17] in a line: Shn3 3'UTR reporter inhibitors, dose response, cell-based, Clone20 osteoblasts, firefly luciferase, cherry-picked (AID 624132).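 Also: firefly luciferase luminescence from reporter carrying the Shn3 3'UTR in osteoblasts.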 It is filed as functional.
The target in assay [18] is 26S proteasome non-ATPase regulatory subunit 14 (Homo sapiens, UniProt O00487). The experiment in a line: inhibition of proteasome subunit RPN11 – biochemical, fluorescence polarization, uHTS hits, confirmation (AID 602368). It is filed as functional.
Sequence of 26S proteasome non-ATPase regulatory subunit 14 (O00487 whole entry): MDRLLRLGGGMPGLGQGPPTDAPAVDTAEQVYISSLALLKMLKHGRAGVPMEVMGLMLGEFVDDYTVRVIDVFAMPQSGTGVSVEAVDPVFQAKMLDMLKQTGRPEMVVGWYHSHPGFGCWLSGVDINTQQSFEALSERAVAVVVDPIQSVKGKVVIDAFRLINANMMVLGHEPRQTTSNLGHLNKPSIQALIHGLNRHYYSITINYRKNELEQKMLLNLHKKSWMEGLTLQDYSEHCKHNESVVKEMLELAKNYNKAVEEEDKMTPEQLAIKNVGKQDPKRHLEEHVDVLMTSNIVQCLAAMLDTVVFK
Assay [19] in a line: HepG2 cell cytotoxicity, dose response, cytotoxicity control for Shn3 inhibitor project, CellTiter-Glo, cherry-picked (AID 624134). It is filed as functional, cell-based.
Assay [20] is described as follows: control 3'UTR Renilla luciferase suppression, dose response, counter-screen for Shn3 inhibitor project, cell-based, Clone20-Shn3RL, cherry-picked (AID 624133). It is filed as functional.
Assay [21] concerns the target 72 kDa type IV collagenase (Homo sapiens, UniProt P08253). The experiment in a line: Dose Response validation of uHTS RPN11 inhibitor hits using a MMP-2 Fluorescence assay. It is filed as functional.
In the next assay the target is Prothrombin (Bos taurus, UniProt P00735). The experiment in a line: thrombin inhibition, dose response, biochemical, fluorescence polarization, uHTS hits (AID 602369). It counts as functional.
In assay [22] the target is T3, Insulin-degrading enzyme (Homo sapiens, UniProt P14735).
T3 sequence (P14735 whole entry): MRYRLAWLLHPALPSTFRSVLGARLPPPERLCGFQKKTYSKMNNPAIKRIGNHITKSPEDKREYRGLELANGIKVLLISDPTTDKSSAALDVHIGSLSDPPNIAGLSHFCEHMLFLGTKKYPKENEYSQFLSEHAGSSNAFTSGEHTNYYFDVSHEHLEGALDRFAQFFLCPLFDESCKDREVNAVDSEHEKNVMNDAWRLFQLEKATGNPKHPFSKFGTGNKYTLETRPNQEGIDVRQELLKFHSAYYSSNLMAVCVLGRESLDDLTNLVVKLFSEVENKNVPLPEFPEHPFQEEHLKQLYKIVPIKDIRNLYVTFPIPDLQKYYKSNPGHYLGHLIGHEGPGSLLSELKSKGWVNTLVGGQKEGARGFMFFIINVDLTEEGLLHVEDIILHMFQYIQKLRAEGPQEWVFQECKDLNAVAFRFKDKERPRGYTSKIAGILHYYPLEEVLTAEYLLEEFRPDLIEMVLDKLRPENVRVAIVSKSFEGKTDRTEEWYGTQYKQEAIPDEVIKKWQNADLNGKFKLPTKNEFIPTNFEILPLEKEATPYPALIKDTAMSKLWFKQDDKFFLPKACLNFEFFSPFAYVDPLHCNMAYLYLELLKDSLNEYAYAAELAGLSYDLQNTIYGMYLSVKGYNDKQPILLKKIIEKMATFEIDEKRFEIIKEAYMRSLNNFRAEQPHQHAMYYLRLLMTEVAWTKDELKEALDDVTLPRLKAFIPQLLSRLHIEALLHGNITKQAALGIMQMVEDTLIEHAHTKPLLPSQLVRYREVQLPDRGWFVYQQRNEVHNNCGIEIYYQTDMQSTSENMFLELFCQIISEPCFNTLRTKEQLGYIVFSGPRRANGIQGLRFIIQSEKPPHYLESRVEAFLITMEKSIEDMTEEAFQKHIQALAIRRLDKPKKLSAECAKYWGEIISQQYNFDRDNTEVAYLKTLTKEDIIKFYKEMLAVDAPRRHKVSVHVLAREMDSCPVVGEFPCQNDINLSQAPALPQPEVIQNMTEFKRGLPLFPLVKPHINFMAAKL
The experiment in a line: activators of recombinant IDE enzyme, dose response, counter-screen for IDE activator project, biochemical, fluorescence polarization (AID 588681).

The target in assay [23] is T3, Insulin-degrading enzyme. The experiment in a line: activators of endogenous IDE in HEK cells, dose response, cell-based, fluorescence polarization (AID 588439). It is filed as functional.
For assay [24], the system named is HEK293. In words: HEK cell cytotoxicity by LDH release, dose response, cytotoxicity control for IDE activator project, fluorescence, HEK cells (AID 588440).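 Also: cytotoxicity by LDH release measuring loss of membrane integrity.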 It counts as functional, cell-based. The following applies: Homo sapiens.
The test system of assay [25] is HEK293. The experiment in a line: optical interference in Abeta FP readout, dose response, artefact control for IDE activator project, biochemical, fluorescence polarization (AID 588442). It is filed as functional, cell-based. The following applies: Homo sapiens.
Another assay in a line: cells. It counts as functional.

Molecules are shown by their SMILES. The source made the active and inactive calls. Bounds are passed on as bounds.

Sequence of Steroidogenic factor 1 (Q13285 whole entry): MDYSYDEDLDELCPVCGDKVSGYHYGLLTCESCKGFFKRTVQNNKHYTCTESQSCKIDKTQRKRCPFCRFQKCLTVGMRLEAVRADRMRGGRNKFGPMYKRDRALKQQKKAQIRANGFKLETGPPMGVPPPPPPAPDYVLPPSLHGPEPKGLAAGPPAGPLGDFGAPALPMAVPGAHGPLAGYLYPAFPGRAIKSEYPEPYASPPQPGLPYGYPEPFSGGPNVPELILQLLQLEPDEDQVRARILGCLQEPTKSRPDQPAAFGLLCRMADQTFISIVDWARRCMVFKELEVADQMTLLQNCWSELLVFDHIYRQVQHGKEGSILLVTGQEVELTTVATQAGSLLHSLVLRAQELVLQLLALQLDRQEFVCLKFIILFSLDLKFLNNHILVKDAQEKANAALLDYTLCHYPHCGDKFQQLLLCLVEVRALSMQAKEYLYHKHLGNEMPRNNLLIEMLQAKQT
Sequence of Nuclear receptor subfamily 5 group A member 2 (O00482 whole entry): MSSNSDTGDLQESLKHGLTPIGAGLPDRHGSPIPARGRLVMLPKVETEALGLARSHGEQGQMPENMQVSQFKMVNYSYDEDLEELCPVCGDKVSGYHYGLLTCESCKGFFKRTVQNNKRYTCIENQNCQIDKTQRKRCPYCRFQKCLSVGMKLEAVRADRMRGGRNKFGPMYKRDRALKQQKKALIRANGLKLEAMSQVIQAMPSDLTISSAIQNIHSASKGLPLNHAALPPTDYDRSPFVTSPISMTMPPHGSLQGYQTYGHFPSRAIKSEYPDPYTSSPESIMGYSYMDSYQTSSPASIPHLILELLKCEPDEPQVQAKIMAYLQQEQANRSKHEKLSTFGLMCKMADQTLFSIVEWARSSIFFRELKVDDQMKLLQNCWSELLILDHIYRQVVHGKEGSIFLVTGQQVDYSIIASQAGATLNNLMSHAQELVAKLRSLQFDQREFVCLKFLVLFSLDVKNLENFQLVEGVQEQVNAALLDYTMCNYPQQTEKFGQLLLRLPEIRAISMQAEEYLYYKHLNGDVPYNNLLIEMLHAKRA
Sequence of 72 kDa type IV collagenase (P08253 whole entry): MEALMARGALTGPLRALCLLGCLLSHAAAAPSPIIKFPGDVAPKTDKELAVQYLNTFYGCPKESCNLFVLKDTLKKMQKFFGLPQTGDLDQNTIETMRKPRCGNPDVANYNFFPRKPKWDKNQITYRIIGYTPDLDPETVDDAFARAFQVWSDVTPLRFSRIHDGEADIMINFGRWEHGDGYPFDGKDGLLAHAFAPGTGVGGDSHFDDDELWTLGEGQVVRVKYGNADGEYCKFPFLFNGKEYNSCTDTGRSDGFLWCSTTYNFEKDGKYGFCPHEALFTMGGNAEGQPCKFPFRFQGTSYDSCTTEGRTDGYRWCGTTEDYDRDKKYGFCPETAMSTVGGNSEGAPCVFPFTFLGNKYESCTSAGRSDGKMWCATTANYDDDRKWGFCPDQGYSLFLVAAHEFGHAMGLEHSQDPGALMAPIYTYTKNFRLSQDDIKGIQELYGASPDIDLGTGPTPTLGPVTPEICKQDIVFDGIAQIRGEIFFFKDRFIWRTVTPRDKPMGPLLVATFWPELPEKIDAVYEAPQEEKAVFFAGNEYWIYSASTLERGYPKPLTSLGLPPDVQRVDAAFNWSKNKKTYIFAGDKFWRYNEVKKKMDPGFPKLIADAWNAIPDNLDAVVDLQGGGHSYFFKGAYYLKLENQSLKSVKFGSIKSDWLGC

Consider `COC(=O)CSc1nc2cc(C)ccc2cc1C#N`, for which the EC50 in [1] and in [2] was > 99 µM (inactive) each time.
`CN1CCN(c2ccc(S(=O)(=O)N3CCCCC3)cc2NC(=O)COc2ccc([N+](=O)[O-])cc2)CC1`: the concentration for a half-maximal effect (EC50) was 0.353 µM (active) in assay [3] and > 30 µM (not active) in assay [4]. Moreover, the IC50 is 35.9 µM (inactive) in assay [5], 1.48 µM (active) on Steroidogenic factor 1 and 35.9 µM (inactive) in assay [6].
Consider `Cc1ccc(/C=C/C(=O)C2C(=O)c3ccccc3C2=O)cc1`, for which the concentration giving a half-maximal response (EC50) was 1.95 µM (active) in assay [7], > 150 µM (not active) on Streptokinase A and 9.64 µM (active) in the assay on Streptococcus. Besides, the AC50 with HEK293 [8] was 4.18 µM (active).
Take `c1ccc(-n2nnc3c(N4CCOCC4)ncnc32)cc1`: the CC50 in [9] was 23.6 µM (active). The results for the EC50 in assay [10], in assay [11] and in [12] were 6.29 µM (inconclusive), 8.24 µM (active) and 7.18 µM (inconclusive), respectively. The AC50 in the assay with HEK293 [8] is 2.47 µM (active); in assay [13] it was > 52 µM (inactive); in assay [14], > 52 µM (inactive); in [15], 7.67 µM (active); in assay [16], 8.39 µM (active).
On to `CCCCn1c(O)c(N=Nc2ccccc2O)c2ccccc21`, for which the EC50 in [1] is 44.9 µM (inactive); in [2], 69.5 µM (inactive).
Regarding `CCCc1cc(=O)oc2cc(OCC(=O)NCc3ccccn3)ccc12`, the IC50 in [5] was 35.9 µM (inactive); at Steroidogenic factor 1, 1.97 µM (active); in assay [6], 35.9 µM (inactive).
Take `Oc1ccc(NCc2cccs2)cc1`: the IC50 at Large T antigen is 28.7 µM (active). For the same compound, in the assay on Vero, the CC50 was > 40 µM (active).
Consider `CCc1ccc(NC(=O)C2CCN(S(=O)(=O)c3ccc4c(c3)NC(=O)C(C)S4)CC2)cc1` (stereo not given), for which the AC50 in [17] is 7.08 µM (active); in assay [19] it was 6.54 µM (active); in assay [20], 6 µM (active). Besides, the IC50 in assay [18] was 31.8 µM (active); in [21] it was > 100 µM (inactive); at Prothrombin, 42 µM (active).
Turning to `Nc1c(C(=O)NC2CCCC2)sc2nc(-c3cccs3)ccc12`, the EC50 in assay [1] was > 99 µM (inactive); in assay [2], 54 µM (inactive).
With `O=C1C=C(c2cccc3c2sc2ccccc23)C[C@@H](c2ccc(Cl)cc2)C1`, the EC50 on Insulin-degrading enzyme [22], at Insulin-degrading enzyme [23] and in the assay with HEK293 [25] was > 54.7 µM (inactive) each time. The IC50 with HEK293 [24] is > 89.2 µM (inactive).
Take `CC(=O)n1cc(/C=C2/N=C(c3ccccc3)OC2=O)c2ccccc21`: in “cells”, the IC50 is 4.63 µM (active). Also, the EC50 in assay [1] and in [2] was > 99 µM (inactive) each time.
Regarding `O=C(CSc1nnc(CNC(=O)c2c(F)cccc2F)o1)Nc1ccc2c(c1)OCCO2`, the values for the IC50 (in [5]; at Steroidogenic factor 1; in assay [6]) were 35.9 µM (inactive), 31 µM (inactive) and 35.9 µM (inactive), respectively.
